Source: patent publication US12428455B2, “Dominant negative CEBPB and CEBPD proteins and methods of use for decreasing viability of neoplastic cells” (The Trustees of Columbia University in the City of New York, priority 2018, dated 2025)
No end group written: not given here.

Tests used:
[1] = tested on: HCT116 colon cancer cells; assay: Cell number after peptide treatment, HCT116; type: cell-based; details: 6 days, 0 μM to 50 μM; stock without BSA
Procedure: Replicate cultures were exposed to the peptides the for 6 days at the indicated concentrations. Stock solutions of the peptides were prepared in buffer without added bovine serum albumin (BSA).
Replicate cultures of HCT116, MDA-MB 231, MCF7, and T98G cells were exposed to a 50/50 by concentration mixture of CP-DN-CEBPB and CP-DN-CEBPD for 6 days at doses of 0 μM to 50 μM. Stock solutions of the peptides were prepared in buffer without added bovine serum albumin (BSA).
Replicate cultures of T98G, HCT116, MDA-MB 231, and MCF7 cells were exposed to CP-DN-CEBPB, CP-DN-CEBPD, or a CP-DN-CEBPD in which heptad repeat leucine residues were mutated to glycine residues for 6 days at doses of 0 μM to 50 μM. Stock solutions of the peptides were prepared in buffer without added bovine serum albumin (BSA).

MDA-MB 231 cells = assay: Colony forming activity in soft agar, MDA-MB 231; type: cell-based; details: 6 days; doses 0.05, 0.5 and 5 μM
Procedure: T98G (FIG. 21A), MDA-MB 231 (FIG. 21B), and HCT116 (FIG. 21C) cells were exposed to CP-DN-CEBPB and CP-DN-CEBPD for 6 days at doses of 0.05 μM 0.5 μM, and 5 μM while growing in soft agar. Growth was inhibited by does as low as 0.5 μM. T98G (FIG. 21D), MDA-MB 231 (FIG. 21E), and HCT116 (FIG. 21F) cells were exposed to CP-DN-CEBPB and CP-DN-CEBPD for 6 days at doses of 0.05 μM 0.5 μM, and 5 μM while growing on culture plates. Growth was inhibited by does as low as 0.5 μM.

T98G cells [2] = assay: Scratch migration assay, T98G; type: cell-based; details: 20 hours, 20 μM or 40 μM
Procedure: Monolayers of MDA-MB 231 or T98G cells were subjected to formation of a scratch at 0 time and cultured for 20 hours in 20 μM or 40 μM CP-DN-CEBPB and CP-DN-CEBPD. Multiple images taken at 0 time and after 20 hours were analyzed for gap width of the scratches into which cells migrated or not. Example images for T98G are found in FIG. 22A, with compiled data for the T98G samples in FIG. 22B. Example images for MDA-MB 231 are found in FIG. 22C, with compiled data for the MDA-MB 231 samples in FIG. 22D.

[3] = tested on: HIEC-6 non-cancer cell lines; assay: PI-Annexin staining and flow cytometry, HIEC-6; type: cell-based, human; details: 20 μM, 3 days
Procedure: MDA-MB-231, MCF7, HCT116 and T98G cancer cell lines and HIEC-6 non-cancer cell lines were treated for 3 days with 20 μM CP-dn-CEBPB and CP-dn-CEBPD peptides from stock solutions prepared without additives, followed by PI-Annexin staining and flow cytometry. Numbers in upper and lower quadrants indicate % of cells in early (lower) or late (upper) apoptotic phase.

T98G cells [4] = assay: Combination with chloroquine, cell number, T98G; type: cell-based; details: 5 μM or 10 μM chloroquine and 3 μM or 10 μM peptide, 6 days
Procedure: Replicate cultures of T98G, MDA-MB 231, and HCT116 cells were treated with 5 μM or 10 μM chloroquine and 3 μM or 10 μM CP-dn-CEBPB and CP-dn-CEBPD peptides, maintained for 6 days, and then assessed for cell number. The bar graphs of FIGS. 29A (T98G, CP-dn-CEBPB), 29C (T98G, CP-dn-CEBPBD, 29E (MDA-MB-231, CP-dn-CEBPBD), 29G (MDA-MB-231, CP-dn-CEBPD), 29I (HCT116, CP-dn-CEBPBB), and 26K (HCT116, CP-dn-CEBPBD) show relative cell numbers for each condition as compared to untreated controls. The line graphs of FIGS. 26B (T98G, CP-dn-CEBPB), 26D (T98G, CP-dn-CEBPBD), 26F (MDA-MB-231, CP-dn-CEBPB), 26H (MDA-MB-231, CP-dn-CEBPD), 26J (HCT116, CP-dn-CEBPB), and 26L (HCT116 CP-dn-CEBPBD) show the response as normalized in each case so that 100 represents the relative number of surviving cells that received the indicated level of chloroquine, but no peptide treatment. The results ranged from near-additive (HCT116 cells, CI=0.92±0.08 for CP-dn-CEBPB and 0.87±0.07 for CP-dn-CEBPD) to apparent synergy (T98G, CI=0.56±0.06 for CP-dn-CEBPB and 0.75±0.03 for CP-dn-CEBPD; MDA-MB-261, CI=0.59±0.11 for CP-dn-CEBPB and 0.47±0.05 for CP-dn-CEBPD).

[5] = tested on: MDA-MB 231, HCT116, and A375 cells; assay: Peptide treatment after doxorubicin pre-treatment, cell number; type: cell-based; details: for sensitivity of cells to peptide with or without doxorubicin pre-treatment: 100 nM doxorubicin 24 hours, then 1, 3, 10 or 20 μM peptide, 6 days; for effect on reversibly non-growing or slow-growing cancer cells: after pre-treatment with 100 nM doxorubicin for 24 hours
Procedure: Replicate cultures of MDA-MB 231, HCT116, and A375 cells were pretreated with 100 nM doxorubicin for 24 hours, and then treated with 1 μM, 3 μM, 10 μM, or 20 μM CP-dn-CEBPB and CP-dn-CEBPD peptides, maintained for 6 days, and then assessed for cell number. The bar graphs of FIGS. 31A (MDA-MB 231, CP-dn-CEBPB), 31C (MDA-MB 231, CP-dn-CEBPBD, 31E (HCT116, CP-dn-CEBPBD), 31G (HCT116, CP-dn-CEBPD), 31I (A375, CP-dn-CEBPBB), and 31K (A375, CP-dn-CEBPBD) show relative cell numbers for each condition as compared to untreated controls. The line graphs of FIGS. 31B (MDA-MB 231, CP-dn-CEBPB), 31D (MDA-MB 231, CP-dn-CEBPBD), 31F (HCT116, CP-dn-CEBPB), 31H (HCT116, CP-dn-CEBPD), 31J (A375, CP-dn-CEBPB), and 31L (A375, CP-dn-CEBPBD) show the response as normalized in each case so that 100 represents the relative number of surviving cells that received the indicated level of doxorubicin, but no peptide treatment.

Sequence	growth and survival / numbers of HCT116 cells [1]	lowest dose at which growth was inhibited, soft agar (MDA-MB 231 cells) [µM]	cell migration into scratch (gap width) (T98G cells [2])	apoptotic death (early or late apoptotic phase) [3]	CI with chloroquine (T98G cells [4])	sensitivity of cells to peptide with or without doxorubicin pre-treatment [5]	effect on reversibly non-growing or slow-growing cancer cells [5]
RQIKIWFQNRRMKWKKLETQHKVLELTAENERLQKKVEQLSRELSTLRNLFKQL [CP-DN-CEBPB]	decrease in growth and survival	0.5	able to inhibit migration	not in the control non-caner cell line	0.56±0.06	retain similar sensitivity	effective to treat reversibly non-growing or slow-growing cancer cells
RQIKIWFQNRRMKWKKLVELSAENEKLHQRVEQLTRDLAGLRQFFK [CP-DN-CEBPD]	decrease in growth and survival	0.5	able to inhibit migration	not in the control non-caner cell line	0.75±0.03	retain similar sensitivity	effective to treat reversibly non-growing or slow-growing cancer cells
